Measurements reported in article PMC10714390, “Quinoline Compounds Targeting the c-Ring of ATP Synthase Inhibit Drug-Resistant Pseudomonas aeruginosa” (ACS Infectious Diseases, 2023).
Values joined by “and” are separate entries in the source; they are usually repeats but may differ in a detail not shown here. Equal entries are not always repeated.

Columns and labels:
[1] = biological target: T1, PA ATP synthase cIle65Ala mutant (Pseudomonas aeruginosa, UniProt Q9HT15, I65A); assay: NADH-driven ATP synthesis inhibition, DK8/pASH20 cI65A membrane vesicles; format: biochemical; conditions: for IC50: ATP synthesis IC50, DK8/pASH20 cI65A vesicles, cI65A mutant, NADH-driven, luminescence assay; for Hill coefficient of dose response fit, DK8/pASH20 cI65A vesicles: inhibition of ATP synthesis activity
T1 construct: expressed in transfected cells; host or cells: E. coli K-12 DK8 transformed with pASH20 carrying mutated atpE
Experimental: P. aeruginosa (ATCC 9027) was streaked onto a 10% TSB agar plate and incubated at room temperature for 72 h. A single colony was resuspended in 100 μL of H2O, and 5 μL was used as the DNA template for PCR with Q5 polymerase (NEB) and […] each of forward and reverse primers. Primers were complementary to regions flanking the atp operon and included sequences for HindIII and NdeI restriction sites (see the SI for primer sequences). The resulting 6.9 kbp DNA fragment was digested with HindIII and NdeI and ligated into digested vector pBR322 (New England Biolabs). The resultant pASH20(-i) plasmid contains a partial atpI gene. To complete the atpI gene, the HindII-XhoI fragment of pASH20(-i) was replaced with a synthetic fragment with a complete atpI (Twist Bioscience) to yield pASH20. The sequence of the entire operon was verified by Sanger DNA sequencing through the ligation sites. Subunit c mutations were introduced by exchanging the XhoI-BamHI fragment containing atpE with a synthetic fragment containing mutated atpE (Twist Bioscience).
Vesicles were prepared from P. aeruginosa and transformed E. coli cells as previously described.[22] Briefly, cells were grown in LB liquid medium at 37 °C with shaking and harvested by centrifugation after 7 h of growth. Cultures of transformant E. coli included 100 μg/mL ampicillin. Cells were disrupted in TMG buffer (50 mM Tris-HCl, MgCl2, 10% (v/v) glycerol, pH 7.5) using an Avestin B15 homogenizer at 19,000 psi. After unbroken cells and debris were cleared by centrifugation at 9000g, inverted vesicles were collected by centrifugation at 193,000g, resuspended in TMG buffer, and stored at −80 °C. Protein concentrations were determined using a modified Lowry assay.[25]
Continuous ATP synthesis activity of inverted membrane vesicles was measured using a luciferin/luciferase luminescence assay as previously described.[22] Inhibition of ATP synthesis activity by test compounds was determined using an end point assay essentially as previously described.[18],[26] In this assay, the synthesis reaction was initiated by 2.5 mM NADH, proceeded for 10 min, and was stopped with 1% trichloroacetic acid, 2 mM CCCP, and 10 mM EDTA. Samples from each reaction were diluted 500-fold prior to the addition of luciferase since quinoline compounds are known to inhibit luciferase.[27] This dilution was sufficient to minimize inhibition of luciferase (Figure S4). Each replicate set included a positive control containing DMSO with no compound and a negative control containing carbonyl cyanide m-chlorophenyl hydrazone. Luminescence values were corrected for the background by subtracting the negative control and then normalized to the positive control within the same replicate. Dose–response curves were fit using eq 1, where activity is the relative ATP synthesis activity, [I] is the concentration of inhibitor in μg/mL, and n is the Hill coefficient. [drawing 1] 1

[2] = test system: drug-resistant P. aeruginosa BAA 2110; assay: Antimicrobial susceptibility (broth microdilution), BAA 2110; format: cell-based, Pseudomonas aeruginosa; conditions: for MIC: Pseudomonas aeruginosa, BAA2110, read-out: antibacterial activity (MIC) BAA 2110
Experimental: The following are general steps, unless otherwise noted. All steps were completed using aseptic techniques. All media and glassware were sterilized via an autoclave at 121 °C for 60 min. All agitation occurred at 160 rpm in a temperature-controlled console shaker (Excella E25) at 37 °C. Full-strength tryptic soy broth (TSB) was made by dissolving 30 g of BD Bacto TSB powder in 1 L of deionized water. Purchased and acquired bacterial strains used were E. coli (ATCC 25922), P. aeruginosa (ATCC 9027), drug-resistant P. aeruginosa from ATCC Panel MP-23 (BAA 2108, BAA 2109, BAA 2110), and P. aeruginosa efflux knockout GKCW120 (PΔ6)[6] provided by Zgurskaya and co-workers at the University of Oklahoma.
Susceptibility testing was performed in biological triplicate using the broth microdilution method as outlined by the Clinical and Laboratory Standards Institute. […] Briefly, to each well, 1 μL of compound in DMSO, 89 μL of TSB, and 10 μL of bacterial inoculum, grown from a single colony in 10 mL of TSB for 4–6 h, were added. After incubation for 12–15 h at 37 °C, absorbance at 590 nm was read on a Biotek Synergy HTX Multimode plate reader. Data were processed by background subtracting the media absorbance and then normalizing the data to full bacterial growth with the vehicle only. MIC is defined as the lowest concentration of antibiotic or antibiotic/adjuvant combination that achieves ≥85% growth inhibition, which corresponds to no visible growth.

[3] = test system: PA electron transport chain; assay: Electron transport activity (NADH-driven H+ pumping, ACMA quenching), PA vesicles; format: biochemical, Pseudomonas aeruginosa; conditions: for inhibition of PA ETC-driven H+ pumping, in words: 0-64 µg/mL, Figure S2; for Inhibition of the PA electron transport chain IC50: PA vesicles
Experimental: Determination of electron transport activity. In an opaque black 96-well plate, inverted membrane
vesicles from PA or E. coli DK8 pASH20 were added to HMK buffer containing 0.3 µg/mL 9-amino-6-chloro-
2-methoxyacridine (ACMA) and 0-64 µg/mL test compound in DMSO. After measurement of baseline
ACMA fluorescence for 60 s, redox-driven H+ pumping was initiated by addition of NADH to 0.8 mM, and
fluorescence quenching was monitored for 120 s before addition of nigericin to 0.5 µg/mL. Relative
activity is reported as the minimum fluorescence value normalized to the maximum fluorescence value
following addition of nigericin. […]

Compound: CSc1nc2ccccc2cc1CNCc1ccc(CN(C)C)cc1 [Compound 4, N,N-Dimethyl-1-(4-((((2-(methylthio)quinolin-3-yl)methyl)amino)methyl)phenyl)methanamine]
- IC50 [1]: 59.5 µM and 59.7 µM
- Hill coefficient of dose response fit, DK8/pASH20 cI65A vesicles [1]: 1.2
- MIC [2]: > 256 µg/mL
- inhibition of PA ETC-driven H+ pumping, in words [3]: some inhibition
- Inhibition of the PA electron transport chain IC50 [3]: 29 µg/mL

Compound: CN(C)Cc1ccc(CNCc2cc3ccccc3nc2SCc2ccccc2)cc1 [Compound 5, 1-(4-((((2-(Benzylthio)quinolin-3-yl)methyl)amino)methyl)phenyl)-N,N-dimethylmethanamine]
- IC50 [1]: 13.3 µM
- Hill coefficient of dose response fit, DK8/pASH20 cI65A vesicles [1]: 1.7
- MIC [2]: > 128 µg/mL
- antibacterial activity in words, BAA 2110 ([2]; summary of Table 1): inactive
- inhibition of PA ETC-driven H+ pumping, in words [3]: some inhibition
- Inhibition of the PA electron transport chain IC50 [3]: 27 µg/mL
